According to PMC10321640, “The VIPR2-selective antagonist KS-133 changes macrophage polarization and exerts potent anti-tumor effects as a single agent and in combination with an anti-PD-1 antibody” (PLOS ONE, 2023):
Where a SMILES comes first, the peptide text is derived from it. Bridges are numbered along the chain shown (N, C = ends).

Experiment: In vivo pharmacokinetic study, plasma LC-MS/MS
Conditions: mouse, iv, 1 nmol/g body weight, male ICR mice, mean ± SD
Text: These animal experiments were approved by the Animal Care and Use Committee of Osaka University (approval No. Douyaku 30-3-2) and conducted at Osaka University in accordance with the aforementioned guidelines. LC–MS/MS data were obtained using an LCMS-8060NX MS system (Shimadzu Corp., Kyoto, Japan) connected to a Nexera X3 UHPLC system (Shimadzu) equipped with a Peptide BEH C18 column (1.7 μm, 2.1 × 50 mm, Waters Corp., Milford, MA, USA). Mobile phase A was 0.1% formic acid in water, and mobile phase B was acetonitrile. The elution profile of mobile phase B was 5% isocratic between 0 to 1 min, linear gradient from 5% to 50% between 1 to 1.5 min, and increase from 50% to 75% between 1.5 to 3 min. The flow rate was 0.2 mL/min. For pharmacokinetic studies, free or nanoformulated KS-133 was administered intravenously or subcutaneously to male ICR mice at 1 nmol/g body weight. Serial blood samples were collected from the tail vein using heparinized capillary tubes at the indicated times after administration. The plasma (5 μL) obtained from each blood sample was mixed with 10 μL of 0.1% formic acid in 50% (v/v) acetonitrile/water, and subsequently, 50 μL of acetonitrile was added. After centrifugation, aliquots (50 μL) of the supernatant were mixed with equal volumes of 0.2% formic acid in water and then injected into the LC–MS/MS system. Pharmacokinetic parameters were obtained from the plasma concentration–time data by non-compartmental analysis using Phoenix WinNonlin Software (Certara Companies, NJ, USA).
Fig 4 Pharmacokinetic study of KS-133 and KS-133 NPs in mice. Concentration of peptides in plasma at indicated time points after administration of peptide with or without nanoformulation are presented. (A) Intravenous administration of KS-133 (n = 3, 1 nmol/g, mean ± SD). (B) Subcutaneous administration of KS-133 and KS-133 NPs (n = 5, 1 nmol/g, mean ± SD). (C) Blood samples were collected at the indicated times. The concentration of KS-133 in plasma was determined by LC–MS/MS (mean ± SD, *p < 0.05 by Student’s t-test). The pharmacokinetic parameters Cmax (μM), tmax (h), t1/2 (h), AUC0-t (μmol·h/L), AUC0-inf,pred (μmol·h/L), and MRTinf,pred (h) were calculated as described in the “Materials and methods” section. […]

AUC(0-inf) (i.v., n = 3, read-out: AUC0-inf, pred): 10.1 ± 1.73 µM·h
MRT (i.v., n = 3, read-out: MRTinf, pred): 58.8 ± 6.6 min
half-life (i.v., non-compartmental, n = 3, read-out: t1/2 (elimination half-life from plasma) (converted)): 40.8 min
AUC(0-t) (n = 3): 7.51 ± 1.77 µM·h
Compound: CC[C@H](C)[C@H](NC(=O)[C@H](CC(C)C)NC(=O)[C@@H]1CC(=O)NCCCC[C@@H]2NC(=O)[C@@H]3CCCN3C(=O)[C@H](CC(C)C)NC(=O)[C@H](Cc3ccc(O)cc3)NC(=O)[C@@H]3CCCN3C(=O)[C@@H]3CCCN3C(=O)[C@@H](NC(C)=O)CSSC[C@H](NC(=O)[C@H](CC(C)C)NC(=O)[C@H](Cc3ccc(O)cc3)NC2=O)C(=O)N1)C(N)=O [KS-133] (Ac-CPPYLPKYLCDLI-NH2; disulfide 1-10; lactam 7-11)
